# Source: ChEMBL document CHEMBL1201862, “PubChem BioAssay data set” (2004)
#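 Cultured in 96-well plates, cells were exposed to test compound for 48 hours across five concentrations. The concentration for 50% growth inhibition is given as GI50.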 The source made the active and inactive calls. Cut-off read from the data, not from the text of the source: active = GI50 up to about 1.1 µM and inactive = higher.
# Experiments:
# Assay in all cases: DTP human tumour cell line panel, 48 h
# [1] = system: BT-549
# [2] = system: DU-145
# [3] = system: EKVX
# [4] = system: HCT-15
# [5] = system: HL-60
# [6] = system: HOP-62
# [7] = system: Hs-578T
# [8] = system: KM12
# [9] = system: LOX IMVI
# [10] = system: MDA-MB-435
# [11] = system: Malme-3M
# [12] = system: NCI-H226
# [13] = system: NCI-H460
# [14] = system: NCI-H522
# [15] = system: PC-3
# [16] = system: RXF 393
# [17] = system: SF-268
# [18] = system: SF-539
# [19] = system: SK-OV-3
# [20] = system: SNB-19
SMILES,GI50 [1],GI50 [2],GI50 [3],GI50 [4],GI50 [5],GI50 [6],GI50 [7],GI50 [8],GI50 [9],GI50 [10],GI50 [11],GI50 [12],GI50 [13],GI50 [14],GI50 [15],GI50 [16],GI50 [17],GI50 [18],GI50 [19],GI50 [20]
C=CC/C(C(=O)OC)=C(/C(=O)OC)N(CCC)CCC,> 100 µM (inactive),> 100 µM (inactive),74.3 µM (inactive),> 100 µM,23 µM (inactive),> 100 µM (inactive),> 100 µM (inactive),> 100 µM (inactive),> 100 µM (inactive),> 100 µM (inactive),> 100 µM (inactive),> 100 µM (inactive),> 100 µM (inactive),83.8 µM (inactive),> 100 µM (inactive),> 100 µM (inactive),> 100 µM (inactive),> 100 µM (inactive),> 100 µM (inactive),> 100 µM (inactive)
N=C(N)N/N=C/c1cnn(C(=N)N)c1,> 100 µM (inactive),> 100 µM (inactive),45.7 µM (inactive),> 100 µM,> 100 µM (inactive),> 100 µM (inactive),> 100 µM (inactive),64.1 µM (inactive),> 100 µM (inactive),> 100 µM (inactive),> 100 µM (inactive),> 100 µM (inactive),> 100 µM (inactive),> 100 µM (inactive),31.4 µM (inactive),> 100 µM (inactive),> 100 µM (inactive),> 100 µM (inactive),> 100 µM (inactive),> 100 µM (inactive)
CC1(C)OC[C@@]2([C@@H]3CC[C@@H](C3)C2(C)C)N1O,> 100 µM (inactive),> 100 µM (inactive),> 100 µM (inactive),> 100 µM,> 100 µM (inactive),> 100 µM (inactive),> 100 µM (inactive),> 100 µM (inactive),92 µM (inactive),> 100 µM (inactive),28.8 µM (inactive),> 100 µM (inactive),> 100 µM (inactive),62.1 µM (inactive),55.8 µM (inactive),> 100 µM (inactive),> 100 µM (inactive),> 100 µM (inactive),> 100 µM (inactive),> 100 µM (inactive)
CCCn1c2ccccc2c2ccc3c(c21)C(=O)C=CC3=O,2.21 µM (inactive),9.79 µM (inactive),> 5.32 µM (inactive),2.24 µM,0.938 µM (active),> 10 µM (inactive),7.03 µM (inactive),> 10 µM (inactive),> 10 µM (inactive),2.3 µM (inactive),1.83 µM (inactive),6.38 µM (inactive),> 10 µM (inactive),1.98 µM (inactive),3.54 µM (inactive),2.1 µM (inactive),> 6.12 µM (inactive),> 4.8 µM (inactive),> 10 µM (inactive),> 10 µM (inactive)
Cc1ccc2c(c1)C(C1Cc3c(C)cccc3C1=O)OC2=O (stereo not given),86.5 µM (inactive),> 100 µM (inactive),> 100 µM (inactive),89.7 µM,> 100 µM (inactive),> 100 µM (inactive),> 100 µM (inactive),> 100 µM (inactive),> 100 µM (inactive),> 100 µM (inactive),> 100 µM (inactive),61.5 µM (inactive),> 100 µM (inactive),> 100 µM (inactive),> 100 µM (inactive),55.3 µM (inactive),> 100 µM (inactive),95.5 µM (inactive),> 100 µM (inactive),> 100 µM (inactive)
CC(=O)SC(C[N+](=O)[O-])c1ccc2c(c1)OCO2 (stereo not given),6.17 µM (inactive),11 µM (inactive),21.4 µM (inactive),3.32 µM,1.97 µM (inactive),17.4 µM (inactive),12.9 µM (inactive),4.75 µM (inactive),1.81 µM (inactive),3.54 µM (inactive),8.11 µM (inactive),18.7 µM (inactive),11.2 µM (inactive),5.22 µM (inactive),12.7 µM (inactive),1.9 µM (inactive),15.9 µM (inactive),2.37 µM (inactive),7.24 µM (inactive),9.31 µM (inactive)
